Tested on: MCF-7 xenograft
Test: RPPA of protein expression, MCF-7 xenograft endpoint analysis
Assay type: in vivo, nude mice
Conditions: 4 mg/kg/day vs. PBS
Protocol: Frozen xenograft tissue samples were embedded in OCT, and 8 μm sections were obtained using a cryostat. […] The resulting whole tissue lysates were boiled for 8 min at 100° C. and then printed onto a nitrocellulose slide (Avid, Grace Biolabs) along with a BSA protein concentration curve to estimate total protein concentration in each lysate. Total protein levels were assessed in each sample by staining with Sypro Ruby Protein Blot Stain (Invitrogen) according to manufacturer's instructions.
The total protein concentration in each sample was estimated by printing onto a nitrocellulose slide along with a BSA standard concentration curve, and total protein levels were assessed by staining with Sypro Ruby Protein Blot Stain (Invitrogen) according to manufacturer's instructions. Tissue lysates were diluted to 250 μg/ml in extraction buffer and stored at −80° C. prior to printing of arrays. RPPA printing and analysis of xenograft samples was conducted as previously described (Wulfkuhle et al., Clin Cancer Res. 2012; 18:6426-35). Antibody staining intensities were quantified using the MicroVigene v5 Software Package (Vigenetech). Signaling pathway activation was evaluated by staining the arrays with 156 antibodies against signaling endpoints, mainly phosphorylated and cleaved protein products. Before use for RPPA analysis, antibody specificity was confirmed by Western blot and analysis as previously described (Wulfkuhle et al., Clin Cancer Res. 2012; 18:6426-35).

[1] = *separate RPPA analysis, separate β actin probe

In the case of `CCCCCCNC(=N)NC(=N)NCc1ccccc1` [HBB, N1-hexyl-N5-benzyl-biguanide], the “fold change: 4EBP1 S65” value is reported as 1.051, the “fold change: 4EBP1 T37/46” value is reported as 1.261 and the “fold change: 4EBP1 T70” value is reported as 0.595. The “fold change: A-Raf S299” value was 0.862, the “fold change: AKT S473” value was 1.042 and the “fold change: AKT T308” value was 0.793. The “fold change: ALK” value was 1.079, the “fold change: ALK Y1604” value was 0.954 and the “fold change: AMPKalpha S485” value was 1.126. For the same compound, the “fold change: AMPKbeta S108” value was 0.665, the “fold change: ATF2 T69/71” value was 0.713 and the “fold change: ATM S1981” value was 1.034. For the same compound, the “fold change: ATP CItrate Lyase S454” value was 1.000, the “fold change: ATR S428” value was 0.810 and the “fold change: AXL” value was 0.566. The “fold change: Acetyl-CoA Carboxylase S79” value was 0.927, the “fold change: Actin beta” value was 1.000 and the “fold change: Aurora A T288/B T232/C T198” value was 0.646. The “fold change: B-RAF” value was 1.130, the “fold change: B-Raf S445” value was 0.764 and the “fold change: BAD” value was 2.424. The “fold change: BAD S112” value was 0.833, the “fold change: BAD S136” value was 0.958 and the “fold change: BCL-2” value was 0.825. The “fold change: BIM” value was 0.727, the “fold change: Bak” value was 0.789 and the “fold change: Bax” value was 0.807. For the same compound, the “fold change: Bcl_xL” value was 0.909, the “fold change: Beclin 1” value was 0.881 and the “fold change: CREB S133” value was 0.626. The “fold change: Chk1 S345” value was 1.290, the “fold change: Cl Caspase 3 D175” value was 1.109 and the “fold change: Cl Caspase 9 D315” value was 1.151. The “fold change: Cl Caspase 9 D330” value was 1.244, the “fold change: Cleaved PARP D214” value was 1.277 and the “fold change: Cofilin S3” value was 0.443. The “fold change: CrkL Y207” value was 0.962, the “fold change: Cyclin A” value was 1.779 and the “fold change: Cyclin B1 V152” value was 1.197. The “fold change: Cyclin D1 (G124-326)” value was 1.277, the “fold change: Cyclin D1 T286” value was 0.611 and the “fold change: E-Cadherin” value was 0.669. For the same compound, the “fold change: EGFR” value was 0.857, the “fold change: EGFR Y992” value was 0.803 and the “fold change: EGFR Y1068” value was 1.089. The “fold change: EGFR Y1148” value was 0.891, the “fold change: EGFR Y1173” value was 0.954 and the “fold change: ER TOTAL” value was 1.687. For the same compound, the “fold change: ER alpha S118” value was 0.964, the “fold change: ERK 1-2 T202/Y204” value was 0.423 and the “fold change: ERK TOTAL” value was 0.791. The “fold change: Elk S383” value was 1.402, the “fold change: Ephrin A3 Y799/A4 Y799/A5 Y833” value was 1.149 and the “fold change: ErbB2/HER2 Y877” value was 0.951. The “fold change: ErbB2/HER2 Y1248” value was 1.239, the “fold change: ErbB3/HER3” value was 0.851 and the “fold change: ErbB3/HER3 Y1197” value was 1.223. The “fold change: ErbB3/HER3 Y1289” value was 1.268, the “fold change: FADD S194” value was 0.672 and the “fold change: FAK Y576/577” value was 1.021. For the same compound, the “fold change: FKHR T24/FKHRL1 T32” value was 0.698, the “fold change: FKHRL1 S253” value was 0.960 and the “fold change: FOXO1 S256” value was 0.854. For the same compound, the “fold change: GRB2” value was 0.830, the “fold change: GSK-3alpha/beta S21/9” value was 0.791 and the “fold change: HIF-1 alpha” value was 2.406. For the same compound, the “fold change: HSP27 S82” value was 0.877, the “fold change: HSP70” value was 1.453 and the “fold change: HSP90a T5/7” value was 0.945. The “fold change: Heregulin” value was 20.774, the “fold change: Histone H3 S28” value was 0.898 and the “fold change: IGF1R Y1135/36-IR Y1150/51” value was 1.101. For the same compound, the “fold change: IGF-1R Y1131/IR Y1146” value was 1.019, the “fold change: IGFBP7” value was 0.992 and the “fold change: IL6” value was 1.260. The “fold change: IRS1” value was 1.014, the “fold change: IRS-1 S612” value was 0.952 and the “fold change: IkappaB-alpha S32/36” value was 1.130. For the same compound, the “fold change: Insulin Receptor Beta” value was 1.261, the “fold change: Jak2 Y1007” value was 0.881 and the “fold change: KI67” value was 0.731. The “fold change: LC3B” value was 1.097, the “fold change: LIMK1 T508/LIMK2 T505” value was 0.795 and the “fold change: LKB1 S428” value was 1.269. The “fold change: MARCKS S152/156” value was 1.071, the “fold change: MCSFR Y723” value was 1.228 and the “fold change: MDM2 S166” value was 0.868. The “fold change: MEK 1/2 S217/221” value was 0.770, the “fold change: Met Y1234/1235” value was 1.033 and the “fold change: Musashi” value was 0.898. For the same compound, the “fold change: NF-kappaB p65 S536” value was 0.817, the “fold change: PAK1 S199/204-PAK2 S192/197” value was 1.221 and the “fold change: PAK1 T423/PAK2 T402” value was 1.028. For the same compound, the “fold change: PDGFR alpha Y754” value was 1.144, the “fold change: PDGFR beta” value was 0.705 and the “fold change: PDGFR beta Y716” value was 0.887. The “fold change: PDK1 S241” value was 0.712, the “fold change: PDL1” value was 34.857 and the “fold change: PKA C T197” value was 0.907. For the same compound, the “fold change: PKC delta/theta S643/S676” value was 0.671, the “fold change: PLK1 T210” value was 1.018 and the “fold change: PTEN” value was 0.726. The “fold change: PTEN S380” value was 0.783, the “fold change: PUMA” value was 0.919 and the “fold change: RAS TOTAL” value was 1.543. For the same compound, the “fold change: Ras_GRF1” value was 1.021, the “fold change: Rb S780” value was 0.674 and the “fold change: Ret Y905” value was 0.810. The “fold change: Ros Y2274” value was 1.201, the “fold change: S6 Ribosomal Protein S240/244” value was 0.817 and the “fold change: SAPK/JNK T183/Y185” value was 1.033. For the same compound, the “fold change: SGK1 S78” value was 1.318, the “fold change: SMAD2 S245/250/255” value was 0.760 and the “fold change: STAT3 S727” value was 1.040. The “fold change: Shc Y317” value was 0.792, the “fold change: Smad1 Ser463/465-Smad5 Ser463/465-Smad9 Ser465/467” value was 0.900 and the “fold change: Src Y527” value was 0.675. For the same compound, the “fold change: Src family Y416” value was 0.471, the “fold change: Stat 1 Y701” value was 0.937 and the “fold change: Stat3 Y705” value was 0.936. For the same compound, the “fold change: Stat 5 Y694” value was 0.558, the “fold change: TGF-beta” value was 0.952 and the “fold change: TNF alpha” value was 1.186. For the same compound, the “fold change: Tuberin/TSC2 Y1571” value was 1.208, the “fold change: VEGFR2 Y996” value was 0.828 and the “fold change: Vimentin” value was 0.896. The “fold change: XIAP” value was 0.835, the “fold change: c-Abl T735” value was 0.776 and the “fold change: c-Abl Y245” value was 0.846. The “fold change: c-ErbB2/HER2” value was 1.938, the “fold change: c-Kit Y703” value was 4.550 and the “fold change: c-Met TOTAL” value was 0.877. For the same compound, the “fold change: c-Myc” value was 0.879, the “fold change: c-Raf S338” value was 1.016 and the “fold change: eIF4G S1108” value was 0.791. The “fold change: eNOS/NOS III S116” value was 0.902, the “fold change: mTOR S2448” value was 1.034 and the “fold change: p27 Kip1” value was 0.925. The “fold change: p27 T187” value was 0.685, the “fold change: p38 MAP Kinase T180/Y182” value was 1.011 and the “fold change: p53” value was 0.997. For the same compound, the “fold change: p53 S15” value was 0.990, the “fold change: p70S6 Kinase” value was 0.674 and the “fold change: p70 S6 Kinase S371” value was 0.762. The “fold change: p70 S6 Kinase T389” value was 0.773, the “fold change: p70 S6 Kinase T412” value was 0.998 and the “fold change: p90RSK S380” value was 1.016. The “fold change: p90RSK T359/S363” value was 0.884, the “fold change: pYAP S127” value was 0.931 and the “fold change: AMPK T172*” value [1] was 0.598. For the same compound, the “fold change: AMPK total*” value [1] was 1.69, the “fold change: PKM2 Y105*” value [1] was 2.13 and the “fold change: PKM2 total*” value [1] was 1.01.

Source: patent publication US20180177749A1, “USE OF CYP EXPRESSION TO DIRECT THERAPEUTIC INTERVENTION IN CANCER” (REGENTS OF THE UNIVERSITY OF MINNESOTA, priority 2016, published 2018)
